How the values were obtained:
[1] = target: T1, inositol-3-phosphate synthase (Homo sapiens, UniProt Q9NPH2); assay: DARTS proteomics in HEK293T lysate ([…]); format: cell-based
T1 construct: gene ISYNA1
T1 sequence (Q9NPH2 1-558): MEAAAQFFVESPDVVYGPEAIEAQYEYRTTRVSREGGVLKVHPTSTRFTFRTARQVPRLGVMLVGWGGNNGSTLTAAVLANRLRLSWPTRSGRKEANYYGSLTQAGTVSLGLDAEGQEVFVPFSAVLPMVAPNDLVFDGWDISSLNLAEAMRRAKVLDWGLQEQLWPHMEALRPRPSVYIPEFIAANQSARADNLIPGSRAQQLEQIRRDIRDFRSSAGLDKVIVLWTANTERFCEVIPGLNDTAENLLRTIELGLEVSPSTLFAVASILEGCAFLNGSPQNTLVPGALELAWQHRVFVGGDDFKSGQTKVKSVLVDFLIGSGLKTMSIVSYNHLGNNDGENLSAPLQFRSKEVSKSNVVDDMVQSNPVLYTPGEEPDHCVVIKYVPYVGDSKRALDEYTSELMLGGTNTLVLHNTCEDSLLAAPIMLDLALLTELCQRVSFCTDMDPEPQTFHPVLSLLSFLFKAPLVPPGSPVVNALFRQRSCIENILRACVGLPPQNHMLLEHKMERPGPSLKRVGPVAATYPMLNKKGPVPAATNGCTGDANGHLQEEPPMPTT

[2] = target: T2, thioredoxin reductase 1 (TrxR) (Homo sapiens, UniProt Q16881); assay: DARTS proteomics in HEK293T lysate; TrxR activity assay in lysates of treated HCT116 cells; format: cell-based
T2 construct: gene TXNRD1
T2 sequence (Q16881 1-649): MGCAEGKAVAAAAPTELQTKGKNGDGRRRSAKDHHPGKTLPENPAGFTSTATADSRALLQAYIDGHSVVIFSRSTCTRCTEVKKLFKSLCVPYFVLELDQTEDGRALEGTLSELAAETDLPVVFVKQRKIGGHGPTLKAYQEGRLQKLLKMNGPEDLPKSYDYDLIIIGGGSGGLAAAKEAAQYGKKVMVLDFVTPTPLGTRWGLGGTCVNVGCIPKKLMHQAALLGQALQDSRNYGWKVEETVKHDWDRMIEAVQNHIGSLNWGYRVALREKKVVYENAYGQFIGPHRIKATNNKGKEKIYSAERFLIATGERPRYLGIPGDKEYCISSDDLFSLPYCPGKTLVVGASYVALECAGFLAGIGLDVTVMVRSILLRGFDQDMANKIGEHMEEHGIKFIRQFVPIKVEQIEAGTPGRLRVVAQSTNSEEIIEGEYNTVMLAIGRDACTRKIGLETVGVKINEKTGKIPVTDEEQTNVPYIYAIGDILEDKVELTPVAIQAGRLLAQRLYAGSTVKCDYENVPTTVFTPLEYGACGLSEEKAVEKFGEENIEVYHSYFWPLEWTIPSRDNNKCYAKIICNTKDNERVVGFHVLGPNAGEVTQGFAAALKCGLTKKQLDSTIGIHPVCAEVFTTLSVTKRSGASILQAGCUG

## CC1(C)[C@H]2COc3ccc4ccccc4c3[C@H]2N=C2SC(c3ccccc3)=C(c3ccccc3)N21 [SIMR1281, (8aS,14aS)-9,9-dimethyl-11,12-diphenyl-8a,14a-dihydro-8H,9H-benzo[5, 6]chromeno[4,3-d]thiazolo[3,2-a]pyrimidine]
[1]
  DARTS proteomics in HEK293T lysate (0.01-1 μM): SIMR1281 has shown a concentration-dependent affinity toward the inositol-3-phosphate synthase enzyme in the DARTS proteomic assay
[2]
  IC50: 2420 nM

— PMC8201054, “A Novel Benzopyrane Derivative Targeting Cancer Cell Metabolic and Survival Pathways” (Cancers, 2021)
